Laboratory results as given in ChEMBL document CHEMBL1201862, “PubChem BioAssay data set” (2004).
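Protocol summary: plate cells (96-well), add compound at 5 concentrations, incubate 48 h, interpolate endpoints linearly. Abbreviation: GI50, concentration required for 50% inhibition of growth.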 Activity calls are given as the source filed them. No stated cut-off is given here; in the data, active = GI50 up to about 1.1 µM and inactive = higher. Residues, ends and D or L forms follow the SMILES beside them. Groups on a side chain read outwards from the residue. *: point of attachment. Cbz = O=C(OCc1ccccc1)*; Boc = CC(C)(C)OC(=O)*

What was measured:
Experiment in all cases: growth of human tumour cells (NCI), 48 h
NCI-H23 = test system: NCI-H23
SK-MEL-28 = test system: SK-MEL-28
NCI-H522 = test system: NCI-H522
SK-MEL-5 = test system: SK-MEL-5
MOLT-4 = test system: MOLT-4
COLO 205 = test system: COLO 205
U-251 = test system: U-251
MDA-MB-435 = test system: MDA-MB-435
HCT-15 = test system: HCT-15
MCF7 = test system: MCF7
SK-OV-3 = test system: SK-OV-3
SR = test system: SR
SNB-19 = test system: SNB-19
HCC 2998 = test system: HCC 2998
K562 = test system: K562
CAKI-1 = test system: CAKI-1
M14 = test system: M14
HOP-92 = test system: HOP-92
SN12C = test system: SN12C
RXF 393 = test system: RXF 393

Row | SMILES | GI50 (NCI-H23) | GI50 (SK-MEL-28) | GI50 (NCI-H522) | GI50 (SK-MEL-5) | GI50 (MOLT-4) | GI50 (COLO 205) | GI50 (U-251) | GI50 (MDA-MB-435) | GI50 (HCT-15) [µM] | GI50 (MCF7) | GI50 (SK-OV-3) | GI50 (SR) | GI50 (SNB-19) | GI50 (HCC 2998) | GI50 (K562) | GI50 (CAKI-1) | GI50 (M14) | GI50 (HOP-92) | GI50 (SN12C) | GI50 (RXF 393)
1 | Cc1c(-c2ccccc2)n(C)c2cn[nH]c(=O)c12 | 38.4 µM (inactive) | 47.3 µM (inactive) | > 100 µM (inactive) | 17.3 µM (inactive) | 32.7 µM (inactive) | 17.1 µM (inactive) | 32.3 µM (inactive) | 33.1 µM (inactive) | 36.6 | 31.5 µM (inactive) | 27.1 µM (inactive) | 27 µM (inactive) | > 100 µM (inactive) | 27.8 µM (inactive) | 47.3 µM (inactive) | 49.5 µM (inactive) | 42.5 µM (inactive) | 81.1 µM (inactive) | – | –
2 | COc1ccc(C2=Nc3c(nc(OC)[nH]c3=O)NC(c3ccccc3)C2)cc1 (centres undefined) | 29.6 µM (inactive) | 19.1 µM (inactive) | 28.7 µM (inactive) | 18.4 µM (inactive) | 38.6 µM (inactive) | 24.6 µM (inactive) | 24.8 µM (inactive) | 33.3 µM (inactive) | – | 21.9 µM (inactive) | – | 53.1 µM (inactive) | 30.5 µM (inactive) | – | 25.2 µM (inactive) | 52 µM (inactive) | 27.3 µM (inactive) | 32.3 µM (inactive) | 23.2 µM (inactive) | 29.7 µM (inactive)
3 | CN(C)Nc1cc(=O)[nH]c(=O)[nH]1 | – | > 100 µM (inactive) | – | > 100 µM (inactive) | > 100 µM (inactive) | > 100 µM (inactive) | > 100 µM (inactive) | > 100 µM (inactive) | > 100 | > 100 µM (inactive) | – | > 100 µM (inactive) | > 100 µM (inactive) | > 100 µM (inactive) | > 100 µM (inactive) | – | > 100 µM (inactive) | > 100 µM (inactive) | > 100 µM (inactive) | > 100 µM (inactive)
4 | CC(C)=CCC[C@H](C)[C@H]1CC[C@@H](C)c2cc(O)c(C)cc21 | 18.1 µM (inactive) | 18.5 µM (inactive) | 17.4 µM (inactive) | 16.2 µM (inactive) | 21.4 µM (inactive) | 18.3 µM (inactive) | 17.1 µM (inactive) | 18.6 µM (inactive) | 18.3 | 17.5 µM (inactive) | 19.1 µM (inactive) | – | 16.6 µM (inactive) | 18.9 µM (inactive) | 20.1 µM (inactive) | 15.7 µM (inactive) | 18.4 µM (inactive) | 16.7 µM (inactive) | 15.9 µM (inactive) | 20.7 µM (inactive)
5 | O=C1c2ccccc2C(=O)c2c(NC(=O)C3CC3)ccc(NC(=O)C3CC3)c21 | > 100 µM (inactive) | > 100 µM (inactive) | 65.8 µM (inactive) | > 100 µM (inactive) | > 100 µM (inactive) | > 100 µM (inactive) | 91.2 µM (inactive) | > 100 µM (inactive) | > 100 | 83.2 µM (inactive) | – | > 100 µM (inactive) | > 100 µM (inactive) | > 100 µM (inactive) | > 100 µM (inactive) | – | – | – | > 100 µM (inactive) | –
6 | CC(C)CC(NC(=O)OCc1ccccc1)C(=O)NCCCCC(NC(=O)C(CCCCNC(=O)C(CC(C)C)NC(=O)OCc1ccccc1)NC(=O)C(CCCCNC(=O)C(CC(C)C)NC(=O)OCc1ccccc1)NC(=O)C(CCCCNC(=O)C(CC(C)C)NC(=O)OCc1ccccc1)NC(=O)OC(C)(C)C)C(=O)O (centres undefined) (Boc-K([Leu-Cbz])K([Leu-Cbz])K([Leu-Cbz])K([Leu-Cbz])-OH; configuration not given here) | > 25 µM (inactive) | > 25 µM (inactive) | > 25 µM (inactive) | > 25 µM (inactive) | > 25 µM (inactive) | – | > 25 µM (inactive) | > 25 µM (inactive) | > 25 | > 25 µM (inactive) | – | > 25 µM (inactive) | > 25 µM (inactive) | > 25 µM (inactive) | > 25 µM (inactive) | > 25 µM (inactive) | > 25 µM (inactive) | – | > 25 µM (inactive) | –
7 | O=c1[nH]c(=O)n(C2CC(O)C(CO)O2)cc1OC/C=C/Cc1ccccc1 (centres undefined) | > 100 µM (inactive) | > 100 µM (inactive) | > 100 µM (inactive) | > 100 µM (inactive) | > 100 µM (inactive) | > 100 µM (inactive) | > 100 µM (inactive) | > 100 µM (inactive) | > 100 | > 100 µM (inactive) | > 100 µM (inactive) | > 100 µM (inactive) | > 100 µM (inactive) | – | > 100 µM (inactive) | > 100 µM (inactive) | > 100 µM (inactive) | – | > 100 µM (inactive) | > 100 µM (inactive)
8 | Cc1cc(C)n(-c2nc3ccccc3c(=O)[nH]2)n1 | 7.96 µM (inactive) | 6.82 µM (inactive) | 2.81 µM (inactive) | 2.64 µM (inactive) | 1.6 µM (inactive) | 2.43 µM (inactive) | 3.24 µM (inactive) | 1.86 µM (inactive) | 2.11 | 3.78 µM (inactive) | 8.65 µM (inactive) | 0.906 µM (active) | 11.9 µM (inactive) | 14.8 µM (inactive) | 1.64 µM (inactive) | 3.02 µM (inactive) | 3.75 µM (inactive) | 21.7 µM (inactive) | 4.34 µM (inactive) | –
9 | C=CCCC1CCCCNC1=S (centres undefined) | > 10 µM (inactive) | > 10 µM (inactive) | – | > 10 µM (inactive) | > 10 µM (inactive) | > 10 µM (inactive) | > 10 µM (inactive) | > 10 µM (inactive) | > 10 | > 10 µM (inactive) | > 10 µM (inactive) | > 10 µM (inactive) | > 10 µM (inactive) | > 10 µM (inactive) | > 10 µM (inactive) | > 10 µM (inactive) | > 10 µM (inactive) | – | > 10 µM (inactive) | > 10 µM (inactive)
10 | COc1cccc(Nc2nc3c([nH]2)c(=O)n(C)c(=O)n3C)c1 | > 10 µM (inactive) | > 10 µM (inactive) | – | > 10 µM (inactive) | > 10 µM (inactive) | > 10 µM (inactive) | – | > 10 µM (inactive) | > 10 | > 10 µM (inactive) | > 10 µM (inactive) | > 10 µM (inactive) | – | > 10 µM (inactive) | > 10 µM (inactive) | > 10 µM (inactive) | > 10 µM (inactive) | > 10 µM (inactive) | > 10 µM (inactive) | 7.01 µM (inactive)
11 | O=C1CC(c2ccccc2)[S+]([O-])c2ccccc2N1 (centres undefined) | > 100 µM (inactive) | > 100 µM (inactive) | > 100 µM (inactive) | > 100 µM (inactive) | > 100 µM (inactive) | > 100 µM (inactive) | > 100 µM (inactive) | > 100 µM (inactive) | > 100 | > 100 µM (inactive) | > 100 µM (inactive) | 65.2 µM (inactive) | > 100 µM (inactive) | – | > 100 µM (inactive) | > 100 µM (inactive) | > 100 µM (inactive) | – | > 100 µM (inactive) | –
12 | N#CC(=N)c1ncn(-c2ccc(N)cc2)c1N | > 100 µM (inactive) | > 100 µM (inactive) | > 100 µM (inactive) | > 100 µM (inactive) | > 100 µM (inactive) | > 100 µM (inactive) | > 100 µM (inactive) | > 100 µM (inactive) | > 100 | > 100 µM (inactive) | > 100 µM (inactive) | > 100 µM (inactive) | > 100 µM (inactive) | > 100 µM (inactive) | > 100 µM (inactive) | > 100 µM (inactive) | > 100 µM (inactive) | – | > 100 µM (inactive) | –
13 | CO[C@@H](c1ccccc1)[C@H](O)[C@@](O)(c1ccccc1)P(=O)(OC)OC | > 100 µM (inactive) | > 100 µM (inactive) | 78.9 µM (inactive) | > 100 µM (inactive) | > 100 µM (inactive) | > 100 µM (inactive) | > 100 µM (inactive) | 44.4 µM (inactive) | > 100 | > 100 µM (inactive) | > 100 µM (inactive) | > 100 µM (inactive) | > 100 µM (inactive) | – | > 100 µM (inactive) | 34.7 µM (inactive) | > 100 µM (inactive) | 29.8 µM (inactive) | > 100 µM (inactive) | > 100 µM (inactive)
14 | COc1cc(CNc2nc3ccccc3n2Cc2ccccc2)cc(CN2CCOCC2)c1O | 60.7 µM (inactive) | 18.4 µM (inactive) | 32.4 µM (inactive) | 18.6 µM (inactive) | 53.8 µM (inactive) | 20.9 µM (inactive) | 31.2 µM (inactive) | 22.5 µM (inactive) | 29.6 | 31.7 µM (inactive) | 96.8 µM (inactive) | – | 61.8 µM (inactive) | 33.9 µM (inactive) | 21.5 µM (inactive) | 26.2 µM (inactive) | 24.7 µM (inactive) | 12.1 µM (inactive) | 44.2 µM (inactive) | 18.2 µM (inactive)
15 | Cc1ccc(/N=N/C(=N/NC(=O)c2ccccc2)c2ccc(N(CCC#N)CCC#N)cc2C)cc1 | 52.6 µM (inactive) | – | 15.5 µM (inactive) | 13.4 µM (inactive) | 61.1 µM (inactive) | 35.2 µM (inactive) | 52.6 µM (inactive) | 4.97 µM (inactive) | 25.3 | 21.3 µM (inactive) | 60.3 µM (inactive) | 5.79 µM (inactive) | 35 µM (inactive) | 24.9 µM (inactive) | 8.05 µM (inactive) | > 100 µM (inactive) | 78.2 µM (inactive) | – | 40.8 µM (inactive) | 22.8 µM (inactive)
